Earlier results, collected in PMC10432605 (Blood Advances, 2023).
Where two headings read alike, the source gives them in different places.

Tests used:
[1] = tested on: patients with r/r MCL; conditions: cited from earlier work
[2] = tested on: patients; conditions: cited from earlier work
[3] = PET assessment, median follow-up 26 months
[4] = ref 10 (ibrutinib), 14 (acalabrutinib), 15 (zanubrutinib)
[5] = median follow-up of 26.7 months

## CC#CC(=O)N1CCC[C@H]1c1nc(-c2ccc(C(=O)Nc3ccccn3)cc2)c2c(N)nccn12 [acalabrutinib]
[1]; [3]
  CR: 43%
  ORR: 81%
[1]; acalabrutinib trial
  median DOR: 26 months
  median PFS: 20 months
[2]
  major hemorrhage: 3.0%
[2]; [4]
  incidence of diarrhea: 31%
  incidence of second malignancy: 12%

## C=CC(=O)N1CCC[C@@H](n2nc(-c3ccc(Oc4ccccc4)cc3)c3c(N)ncnc32)C1 [ibrutinib]
[1]
  median TTR: 1.9 months
[1]; [5]
  ORR in patients with bulky tumors: 67%
  ORR in patients with ≥2 prior treatments: 63%
[1]; pivotal study 1104, r/r MCL, median 15.3-month follow-up, CT-based
  ORR: 65.8%
[1]; pivotal study 1104
  median DOR: 17.5 months
  median PFS: 13.9 months
[1]; pivotal study 1104, median 15.3-month follow-up, CT-based
  CR: 17.1%
[2]
  grade 3 or greater atrial fibrillation and atrial flutter: 4%
  grade 3 or higher hypertension events: 8%
